Reference: BindingDB's records for doi:10.1021/jm00012a012 (Wellcome Research Laboratories, 1995)

Assay: Activity against adenosine diphosphate (ADP) induced platelet aggregation

Work on `CCCCCCOc1c(OC)cc(C(=O)OCc2ccccc2C[N+](C)(C)C)cc1OC` [[2-(4-Hexyloxy-3,5-dimethoxy-benzoyloxymethyl)-benzyl]-trimethyl-ammonium; iodide] yielded an IC50 of 16 µM.

In the case of `CCCCCCOc1c(C)cc(C(=O)OCCCC[N+](C)(C)C)cc1C` [[4-(4-Hexyloxy-3,5-dimethyl-benzoyloxy)-butyl]-trimethyl-ammonium; iodide], the IC50 is reported as 12 µM.

`CCCCCCCCCCOc1c(OC)cc(C(=O)OCC[N+](C)(C)C)cc1OC` [[2-(4-Decyloxy-3,5-dimethoxy-benzoyloxy)-ethyl]-trimethyl-ammonium; iodide] showed an IC50 of 2 µM.

Molecule `CCCCCCOc1c(Cl)cc(C(=O)OCCCC[N+](C)(C)C)cc1OC` [[4-(3-Chloro-4-hexyloxy-5-methoxy-benzoyloxy)-butyl]-trimethyl-ammonium; iodide] has an IC50 of 9.6 µM.

Work on `CCCCCCOc1c(OC)cc(CCCCc2scnc2C)cc1OC` [5-[4-(4-Hexyloxy-3,5-dimethoxy-phenyl)-butyl]-4-methyl-thiazole] yielded an IC50 of 13.5 µM.

`CCCCCCCCCCCCCCCCOc1c(OC)cc(C(=O)OCCCC[N+](C)(C)C)cc1OC` [[4-(4-Hexadecyloxy-3,5-dimethoxy-benzoyloxy)-butyl]-trimethyl-ammonium; iodide] showed an IC50 of 2.9 µM.

For `CCCCCCCCOc1c(OC)cc(C(=O)OCCCC[N+](C)(C)C)cc1OC` [[4-(3,5-Dimethoxy-4-octyloxy-benzoyloxy)-butyl]-trimethyl-ammonium; iodide], the IC50 was 13.8 µM.

`CCCCCCOc1ccc(C(=O)OCCCC[N+](C)(C)C)cc1` [[4-(4-Hexyloxy-benzoyloxy)-butyl]-trimethyl-ammonium; iodide] showed an IC50 of 22.5 µM.
